According to US11401271B2, “Fused heterocyclic compound, pyrazole-ring-containing fused heterocyclic compound, agricultural composition containing thereof, and method of using the composition” (SOUTH CHINA AGRICULTURAL UNIVERSITY, priority 2017, dated 2022):

Legend:
Assay in all cases: whole plant or invertebrate
Assay type in all cases: in vivo
[1] = tested on: Plutella xylostella; conditions: 500 ppm; 2nd-instar larvae, leaf immersion feeding
In short: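 Cabbage leaf discs dipped 5 s in compound at 500 ppm (0.05% Tween-80 aqueous), air-dried, fed to about 35 2nd-instar larvae at 28° C., triplicate. Dead larvae counted after 24 h; mortality (%) corrected against Tween-80 control.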

[2] = tested on: Aphis craccivora; conditions: 500 ppm; wingless adults, immersion 5 seconds, counted after 24 hours
In short: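 Wingless adults feeding on bean sprouts were dipped with the sprouts for 5 s in 500 ppm compound in aqueous 0.05% Tween-80, air-dried, then held at 23° C. Dead aphids counted after 24 h, triplicate, with 0.05% Tween-80 as control. Mortality (%) = (control live − treated live)/control live × 100.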

[3] = tested on: Solenopsis invicta; conditions: 100 ppm, water test tube poison-feeding
In short: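 Fire ants fed compound by water test-tube poison-feeding at 100 ppm in aqueous 0.05% Tween-80/5% honey (from 10 g/L DMSO stock), kept at 25 °C. Live and dead ants counted at 24 and 72 h; mortality (%) calculated relative to live ants in the untreated control.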

[4] = tested on: Spodoptera exigua; conditions: 500 ppm; 2nd-instar larvae, leaf immersion feeding
In short: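 Cabbage leaf discs dipped 5 s in 500 ppm compound (0.05% Tween-80 aqueous), air-dried, fed to about 35 2nd-instar larvae at 28° C, three replicates. Deaths counted at 24 h; mortality corrected against Tween-80 control.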

## COC(=O)C1(CC(=O)OCC(F)F)Nc2c([S+]([O-])C(F)(F)F)c(C#N)nn2-c2cc(C(F)(F)F)cc(Cl)c21 (centres unmarked) [c-20]
[1]
  Plutella xylostella Mortality (%): 100%
[2]
  Aphis craccivora Mortality (%): 100%
[3]
  Solenopsis invicta Mortality (%) 24 h: 14%
  Solenopsis invicta Mortality (%) 72 h: 100%
[4]
  Spodoptera exigua Mortality (%): 100%

## N#Cc1nn2c(c1[S+]([O-])C(F)(F)F)NC(Cc1ccccc1)(C(=O)C(F)(F)F)c1c(Cl)cc(C(F)(F)F)cc1-2 (centres unmarked) [c-36]
[1]
  Plutella xylostella Mortality (%): 92%
[2]
  Aphis craccivora Mortality (%): 95%
[3]
  Solenopsis invicta Mortality (%) 24 h: 21%
  Solenopsis invicta Mortality (%) 72 h: 100%
[4]
  Spodoptera exigua Mortality (%): 90%

## CC(=O)C1(C(=O)C(F)(F)F)Nc2c([S+]([O-])C(F)(F)F)c(C#N)nn2-c2cc(C(F)(F)F)cc(Cl)c21 (centres unmarked) [c-39]
[1]
  Plutella xylostella Mortality (%): 95%
[2]
  Aphis craccivora Mortality (%): 100%
[3]
  Solenopsis invicta Mortality (%) 24 h: 24%
  Solenopsis invicta Mortality (%) 72 h: 90%
[4]
  Spodoptera exigua Mortality (%): 89%

## N#Cc1nn2c(c1[S+]([O-])C(F)(F)F)NC(CCCl)(C(=O)C(F)(F)F)c1c(Cl)cc(C(F)(F)F)cc1-2 (centres unmarked) [c-42]
[1]
  Plutella xylostella Mortality (%): 86%
[2]
  Aphis craccivora Mortality (%): 100%
[3]
  Solenopsis invicta Mortality (%) 24 h: 20%
  Solenopsis invicta Mortality (%) 72 h: 97%
[4]
  Spodoptera exigua Mortality (%): 80%

## CC(=O)C1(CC(=O)C(F)(F)F)Nc2c([S+]([O-])C(F)(F)F)c(C#N)nn2-c2cc(C(F)(F)F)cc(Cl)c21 (centres unmarked) [c-47]
[1]
  Plutella xylostella Mortality (%): 90%
[2]
  Aphis craccivora Mortality (%): 100%
[3]
  Solenopsis invicta Mortality (%) 24 h: 35%
  Solenopsis invicta Mortality (%) 72 h: 99%
[4]
  Spodoptera exigua Mortality (%): 89%

## COC(=O)CC1(C(=O)OC)Nc2c([S+]([O-])C(F)(F)F)c(C#N)nn2-c2cc(OC(F)(F)F)cc(Cl)c21 (centres unmarked) [c-224]
[1]
  Plutella xylostella Mortality (%): 99%
[2]
  Aphis craccivora Mortality (%): 100%
[3]
  Solenopsis invicta Mortality (%) 24 h: 25%
  Solenopsis invicta Mortality (%) 72 h: 100%
[4]
  Spodoptera exigua Mortality (%): 95%

## COC(=O)CC1(C(=O)OC)Nc2c(OC(F)(F)F)c(C#N)nn2-c2c(Cl)cc(C(F)(F)F)cc21 (stereo not drawn) [d-3]
[1]
  Plutella xylostella Mortality (%): 100%
[2]
  Aphis craccivora Mortality (%): 100%
[3]
  Solenopsis invicta Mortality (%) 24 h: 21%
  Solenopsis invicta Mortality (%) 72 h: 87%
[4]
  Spodoptera exigua Mortality (%): 98%

## COC(=O)CC1(C(=O)OC)Nc2c([S+]([O-])C(F)(F)F)c(C(C)=O)nn2-c2c(Cl)cc(C(F)(F)F)cc21 (stereo not drawn) [d-8]
[1]
  Plutella xylostella Mortality (%): 85%
[2]
  Aphis craccivora Mortality (%): 90%
[3]
  Solenopsis invicta Mortality (%) 24 h: 15%
  Solenopsis invicta Mortality (%) 72 h: 65%
[4]
  Spodoptera exigua Mortality (%): 82%

## COC(=O)CC1(C(=O)OC)Nc2c([S+]([O-])C(F)(F)F)c(CN)nn2-c2c(Cl)cc(C(F)(F)F)cc21 (stereo not drawn) [d-9]
[1]
  Plutella xylostella Mortality (%): 82%
[2]
  Aphis craccivora Mortality (%): 96%
[3]
  Solenopsis invicta Mortality (%) 24 h: 21%
  Solenopsis invicta Mortality (%) 72 h: 77%
[4]
  Spodoptera exigua Mortality (%): 79%

## COC(=O)CC1(C(=O)OC)Nc2c([S+](C)[O-])c(C#N)nn2-c2c(Cl)cc(C(F)(F)F)cc21 (stereo not drawn) [d-13]
[1]
  Plutella xylostella Mortality (%): 82%
[2]
  Aphis craccivora Mortality (%): 99%
[3]
  Solenopsis invicta Mortality (%) 24 h: 26%
  Solenopsis invicta Mortality (%) 72 h: 89%
[4]
  Spodoptera exigua Mortality (%): 81%

## CC[S+]([O-])c1c(C#N)nn2c1NC(CC(=O)OC)(C(=O)OC)c1cc(C(F)(F)F)cc(Cl)c1-2 (stereo not drawn) [d-14]
[1]
  Plutella xylostella Mortality (%): 90%
[2]
  Aphis craccivora Mortality (%): 100%
[3]
  Solenopsis invicta Mortality (%) 24 h: 24%
  Solenopsis invicta Mortality (%) 72 h: 100%
[4]
  Spodoptera exigua Mortality (%): 89%

## COC(=O)C1(CC(N)=O)Nc2c([S+]([O-])C(F)(F)F)c(C#N)nn2-c2c(Cl)cc(C(F)(F)F)cc21 (stereo not drawn) [d-20]
[1]
  Plutella xylostella Mortality (%): 100%
[2]
  Aphis craccivora Mortality (%): 100%
[3]
  Solenopsis invicta Mortality (%) 24 h: 14%
  Solenopsis invicta Mortality (%) 72 h: 100%
[4]
  Spodoptera exigua Mortality (%): 100%

## COC(=O)C1(CC(=O)OCC(F)(F)F)Nc2c([S+]([O-])C(F)(F)F)c(C#N)nn2-c2c(Cl)cc(C(F)(F)F)cc21 (stereo not drawn) [d-27]
[1]
  Plutella xylostella Mortality (%): 100%
[2]
  Aphis craccivora Mortality (%): 100%
[3]
  Solenopsis invicta Mortality (%) 24 h: 14%
  Solenopsis invicta Mortality (%) 72 h: 100%
[4]
  Spodoptera exigua Mortality (%): 100%

## COC(=O)C1(CC(C)=O)Nc2c([S+]([O-])C(F)(F)F)c(C#N)nn2-c2c(Cl)cc(C(F)(F)F)cc21 (stereo not drawn) [d-33]
[1]
  Plutella xylostella Mortality (%): 100%
[2]
  Aphis craccivora Mortality (%): 100%
[3]
  Solenopsis invicta Mortality (%) 24 h: 26%
  Solenopsis invicta Mortality (%) 72 h: 100%
[4]
  Spodoptera exigua Mortality (%): 99%

## COC(=O)C1(CBr)Nc2c([S+]([O-])C(F)(F)F)c(C#N)nn2-c2c(Cl)cc(C(F)(F)F)cc21 (stereo not drawn) [d-34]
[1]
  Plutella xylostella Mortality (%): 90%
[2]
  Aphis craccivora Mortality (%): 100%
[3]
  Solenopsis invicta Mortality (%) 24 h: 25%
  Solenopsis invicta Mortality (%) 72 h: 93%
[4]
  Spodoptera exigua Mortality (%): 95%

## COC(=O)C1(CC(F)(F)F)Nc2c([S+]([O-])C(F)(F)F)c(C#N)nn2-c2c(Cl)cc(C(F)(F)F)cc21 (stereo not drawn) [d-35]
[1]
  Plutella xylostella Mortality (%): 90%
[2]
  Aphis craccivora Mortality (%): 100%
[3]
  Solenopsis invicta Mortality (%) 24 h: 30%
  Solenopsis invicta Mortality (%) 72 h: 100%
[4]
  Spodoptera exigua Mortality (%): 89%

## CCOC(=O)C1(CC(=O)OC(C(F)(F)F)C(F)(F)F)Nc2c([S+]([O-])C(F)(F)F)c(C#N)nn2-c2c(Cl)cc(C(F)(F)F)cc21 (stereo not drawn) [d-42]
[1]
  Plutella xylostella Mortality (%): 100%
[2]
  Aphis craccivora Mortality (%): 100%
[3]
  Solenopsis invicta Mortality (%) 24 h: 31%
  Solenopsis invicta Mortality (%) 72 h: 100%
[4]
  Spodoptera exigua Mortality (%): 100%

## CC(=O)CC1(C(C)=O)Nc2c([S+]([O-])C(F)(F)F)c(C#N)nn2-c2c(Cl)cc(C(F)(F)F)cc21 (stereo not drawn) [d-46]
[1]
  Plutella xylostella Mortality (%): 95%
[2]
  Aphis craccivora Mortality (%): 100%
[3]
  Solenopsis invicta Mortality (%) 24 h: 14%
  Solenopsis invicta Mortality (%) 72 h: 90%
[4]
  Spodoptera exigua Mortality (%): 90%

## CC(=O)C1(CC(F)(F)F)Nc2c([S+]([O-])C(F)(F)F)c(C#N)nn2-c2c(Cl)cc(C(F)(F)F)cc21 (stereo not drawn) [d-48]
[1]
  Plutella xylostella Mortality (%): 96%
[2]
  Aphis craccivora Mortality (%): 100%
[3]
  Solenopsis invicta Mortality (%) 24 h: 26%
  Solenopsis invicta Mortality (%) 72 h: 100%
[4]
  Spodoptera exigua Mortality (%): 90%

## CC(=O)C1(CC(=O)C(F)(F)F)Nc2c([S+]([O-])C(F)(F)F)c(C#N)nn2-c2c(Cl)cc(C(F)(F)F)cc21 (stereo not drawn) [d-49]
[1]
  Plutella xylostella Mortality (%): 100%
[2]
  Aphis craccivora Mortality (%): 100%
[3]
  Solenopsis invicta Mortality (%) 24 h: 29%
  Solenopsis invicta Mortality (%) 72 h: 100%
[4]
  Spodoptera exigua Mortality (%): 100%

## N#Cc1nn2c(c1[S+]([O-])C(F)(F)F)NC(CC(=O)C(F)(F)F)(C(=O)C(F)(F)F)c1cc(C(F)(F)F)cc(Cl)c1-2 (stereo not drawn) [d-50]
[1]
  Plutella xylostella Mortality (%): 100%
[2]
  Aphis craccivora Mortality (%): 100%
[3]
  Solenopsis invicta Mortality (%) 24 h: 26%
  Solenopsis invicta Mortality (%) 72 h: 93%
[4]
  Spodoptera exigua Mortality (%): 90%

## N#Cc1nn2c(c1[S+]([O-])C(F)(F)F)NC(Cc1ccccc1)(C(=O)C(F)(F)F)c1cc(C(F)(F)F)cc(Cl)c1-2 (stereo not drawn) [d-52]
[1]
  Plutella xylostella Mortality (%): 100%
[2]
  Aphis craccivora Mortality (%): 100%
[3]
  Solenopsis invicta Mortality (%) 24 h: 24%
  Solenopsis invicta Mortality (%) 72 h: 100%
[4]
  Spodoptera exigua Mortality (%): 100%

## COC(=O)CC1(C(=O)C(F)(F)F)Nc2c([S+]([O-])C(F)(F)F)c(C#N)nn2-c2c(Cl)cc(C(F)(F)F)cc21 (stereo not drawn) [d-54]
[1]
  Plutella xylostella Mortality (%): 100%
[2]
  Aphis craccivora Mortality (%): 100%
[3]
  Solenopsis invicta Mortality (%) 24 h: 21%
  Solenopsis invicta Mortality (%) 72 h: 99%
[4]
  Spodoptera exigua Mortality (%): 99%

## N#CCC1(Cl)Nc2c([S+]([O-])C(F)(F)F)c(C#N)nn2-c2c(Cl)cc(C(F)(F)F)cc21 (stereo not drawn) [d-60]
[1]
  Plutella xylostella Mortality (%): 96%
[2]
  Aphis craccivora Mortality (%): 90%
[3]
  Solenopsis invicta Mortality (%) 24 h: 24%
  Solenopsis invicta Mortality (%) 72 h: 90%
[4]
  Spodoptera exigua Mortality (%): 90%

## N#Cc1nn2c(c1[S+]([O-])C(F)(F)F)NC(Br)(CC(=O)C(F)(F)F)c1cc(C(F)(F)F)cc(Cl)c1-2 (stereo not drawn) [d-63]
[1]
  Plutella xylostella Mortality (%): 100%
[2]
  Aphis craccivora Mortality (%): 100%
[3]
  Solenopsis invicta Mortality (%) 24 h: 20%
  Solenopsis invicta Mortality (%) 72 h: 90%
[4]
  Spodoptera exigua Mortality (%): 95%

## N#Cc1nn2c(c1[S+]([O-])C(F)(F)F)NC(C#N)(CC(F)(F)F)c1cc(C(F)(F)F)cc(Cl)c1-2 (stereo not drawn) [d-65]
[1]
  Plutella xylostella Mortality (%): 100%
[2]
  Aphis craccivora Mortality (%): 100%
[3]
  Solenopsis invicta Mortality (%) 24 h: 24%
  Solenopsis invicta Mortality (%) 72 h: 90%
[4]
  Spodoptera exigua Mortality (%): 100%

## COC(=O)CC1(C#N)Nc2c([S+]([O-])C(F)(F)F)c(C#N)nn2-c2c(Cl)cc(C(F)(F)F)cc21 (stereo not drawn) [d-67]
[1]
  Plutella xylostella Mortality (%): 100%
[2]
  Aphis craccivora Mortality (%): 100%
[3]
  Solenopsis invicta Mortality (%) 24 h: 41%
  Solenopsis invicta Mortality (%) 72 h: 99%
[4]
  Spodoptera exigua Mortality (%): 90%

## N#Cc1nn2c(c1[S+]([O-])C(F)(F)F)NC(CC(F)(F)F)(C(F)(F)F)c1cc(C(F)(F)F)cc(Cl)c1-2 (stereo not drawn) [d-69]
[1]
  Plutella xylostella Mortality (%): 90%
[2]
  Aphis craccivora Mortality (%): 100%
[3]
  Solenopsis invicta Mortality (%) 24 h: 44%
  Solenopsis invicta Mortality (%) 72 h: 100%
[4]
  Spodoptera exigua Mortality (%): 86%
